Data published in patent US9850272B2, “Therapeutically active estratrienthiazole derivatives as inhibitors of 17.beta-hydroxy-steroid dehydrogenase, type 1” (FORENDO PHARMA LTD, priority 2013, dated 2017).

What was measured:
[1] = target: T1, Recombinant Human 17β-HSD1 (Homo sapiens, UniProt P14061); experiment: Inhibition of recombinant human 17β-HSD1 (conversion of 3H-estrone to estradiol, HPLC); assay type: biochemical; conditions: inhibitor at 1 μM; 30 nM estrone, 1 mM NADPH, 30 min at RT; read-out: 17β-HDS1 Inhibition % at 1 μM
T1 construct: made in house; host or cells: Sd9 (Sf9) insect cells, baculovirus (Bac to Bac Expression System)
T1 sequence (P14061 1-328): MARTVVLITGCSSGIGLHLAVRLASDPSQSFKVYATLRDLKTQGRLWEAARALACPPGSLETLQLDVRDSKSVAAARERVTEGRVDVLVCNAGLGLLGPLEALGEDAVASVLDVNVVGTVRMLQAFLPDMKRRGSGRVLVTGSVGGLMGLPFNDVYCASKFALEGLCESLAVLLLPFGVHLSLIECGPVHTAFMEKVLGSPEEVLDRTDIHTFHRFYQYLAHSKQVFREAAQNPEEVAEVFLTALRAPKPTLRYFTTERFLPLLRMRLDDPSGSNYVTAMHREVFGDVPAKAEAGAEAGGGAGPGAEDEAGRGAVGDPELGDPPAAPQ
Description: 17β-HSD1 Production and Isolation:
Recombinant baculovirus was generated by the “Bac to Bac Expression System” (Invitrogen). Recombinant bacmid was transfected to Sd9 insect cells using “Cellfectin Reagent” (Invitrogen). 60 h later cells were harvested; the microsomal fraction was isolated as described by Puranen, T. J., Poutanen, M. H., Peltoketo, H. E., Vihko, P. T. and Vihko, R. K. (1994) Site-directed mutagenesis of the putative active site of human 17 β-hydroxysteroid dehydrogenase type 1. Biochem. J. 304: 289-293. Aliquots were stored frozen until determination of enzymatic activity.
Assay—Inhibition of Recombinant Human 17β-HSD1:
Recombinant protein (1 μg/ml) was incubated in 20 mM KH2PO4 pH 7.4 with 30 nM estrone (including 800.000 cpm/ml of ^3H-estrone) and 1 mM NADPH for 30 min at RT, in the presence of the potential inhibitor at concentrations 1 μM or 0.1 μM. Inhibitor stock solutions were prepared in DMSO. Final concentration of DMSO was adjusted to 1% in all samples. The enzyme reaction was stopped by addition of 10% trichloroacetic acid (final concentration). Samples were centrifuged in a microtiter plate at 4000 rpm for 10 min. Supernatants were applied to reverse phase HPLC on a Waters Symmetry C18 column, equipped with a Waters Sentry Guard column. Isocratic HPLC runs were performed at RT at a flow rate of 1 ml/min in acetonitrile:water 48:52 as running solvent. Radioactivity was monitored in the eluate by a Packard Flow Scintillation Analyzer. Total radioactivity for estrone and estradiol were determined in each sample and percent conversion of estrone to estradiol was calculated according to the following formula:
(§1) Percent inhibition was calculated flowingly: % inhibition=100−% conversion

[2] = target: T2, Recombinant Human 17β-HSD2 (Homo sapiens, UniProt P37059); experiment: Inhibition of recombinant human 17β-HSD2 (conversion of 3H-estradiol to estrone, HPLC); assay type: biochemical; conditions: inhibitor at 1 μM; 50 nM estradiol, 1 mM NADH, 30 min at RT; read-out: 17β-HSD2 Inhibition % at 1 μM
T2 construct: made in house; host or cells: Sd9 (Sf9) insect cells, baculovirus (Bac to Bac Expression System)
T2 sequence (P37059 1-387): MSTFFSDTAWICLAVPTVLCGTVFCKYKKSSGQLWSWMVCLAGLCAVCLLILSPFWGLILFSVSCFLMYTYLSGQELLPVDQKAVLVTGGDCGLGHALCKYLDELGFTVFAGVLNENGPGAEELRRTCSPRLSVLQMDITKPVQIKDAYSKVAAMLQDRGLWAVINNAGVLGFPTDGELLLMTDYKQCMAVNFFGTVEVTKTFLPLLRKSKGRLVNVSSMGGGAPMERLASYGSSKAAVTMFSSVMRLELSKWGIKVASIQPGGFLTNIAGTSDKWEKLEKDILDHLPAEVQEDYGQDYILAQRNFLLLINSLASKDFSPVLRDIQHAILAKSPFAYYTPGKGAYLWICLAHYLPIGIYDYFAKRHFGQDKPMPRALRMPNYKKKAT
Description: 17β-HSD2 Production and Isolation:
Similarly to 17β-HSD1 the Recombinant baculovirus was generated by the “Bac to Bac Expression System” (Invitrogen). Recombinant bacmid was transfected to Sd9 insect cells using “Cellfectin Reagent” (Invitrogen). 60 h later cells were harvested and supernatant were fractionated by the following protocol: • cells were dissolved into 40 ml of A-buffer (40 mM TRIS, pH8.0, 20% glycerol, 20 μM NAD, 0.4 mM PMSF, 150 mM NaCl, 0.5% dodecyl-β-maltoside+protease inhibitor cocktail) • cells were sonicated • lysate was incubated on ice for 15 min • lysate was centrifuged 5000 rpm 15 min, +4° C. • centrifugation of the supernatant 180.000 g 30 min, +4° C. • pellet was dissolved into 8 ml of A-buffer • not resuspended material was removed by centrifugation 5000 rpm 15 min, +4° C. • the clear supernatant was divided into 100 μl aliquots and were stored frozen until determination of enzymatic activity.
The amount of 17β-HSD2 was analysed by immunoblotting and total protein concentration of each extract batch was determined.
Assay—Inhibition of Recombinant Human 17β-HSD2:
Recombinant protein (4 μg/ml) was incubated in 20 mM KH2PO4 pH 8.5 with 50 nM estradiol (including 800.000 cpm/ml of ^3H-estradiol) and 1 mM NADH for 30 min at RT, in the presence of the potential inhibitor at concentrations 1 μM or 0.1 μM. Inhibitor stock solutions were prepared in DMSO. Final concentration of DMSO was adjusted to 1% in all samples. The enzyme reaction was stopped by addition of 10% trichloroacetic acid (final concentration). Samples were centrifuged in a microtiter plate at 4000 rpm for 10 min. Supernatants were applied to reverse phase HPLC on a Waters Symmetry C18 column, equipped with a Waters Sentry Guard column. Isocratic HPLC runs were performed at RT at a flow rate of 1 ml/min in acetonitrile:water 48:52 as running solvent. Radioactivity was monitored in the eluate by a Packard Flow Scintillation Analyzer. Total radioactivity for estrone and estradiol were determined in each sample and percent conversion of estradiol to estrone was calculated according to the following formula:
as §1

[3] = Metabolic stability assay, human liver microsome and homogenate incubations; assay type: in vitro ADME; conditions: human liver homogenate or microsomes
Description: Metabolic Stability Assay The in vitro metabolic stability of the compounds of the invention was determined for exemplified compounds using human liver microsome and homogenate incubations. The incubation time points used with or without appropriate cofactors were 0 min and 60 min. Samples were collected at both time points and substrates were detected using LC/PDA/TOF-MS. In vitro metabolic stability (% remaining after 60 min in human liver homogenate or microsomes) of the compounds were calculated and the results are summarized in Table 3.

Row | Compound | inhibition at 1 µM [1] [%] | inhibition at 1 µM [2] [%] | In vitro metabolic stability, % remaining after 60 min [3] [%]
1 | CO[C@H]1C[C@@H](CCC(=O)Nc2ncc(C)s2)C2C3CCc4cc(O)ccc4C3CC[C@@]21C (stereo partly drawn) [Compound 17, 3-((13S,15R,17S)-3-hydroxy-17-methoxy-13-methyl-7,8,9,11,12,13,14,15,16,17-decahydro-6H-cyclopenta[a]phenanthren-15-yl)-N-(5-methylthiazol-2-yl)propanamide] | 79 | 4 | 37
2 | CCCC[C@]1(O)C[C@@H](CCC(=O)Nc2ncc(C)s2)C2C3CCc4cc(O)ccc4C3CC[C@@]21C (stereo partly drawn) [Compound 19, 3-((13S,15R,17S)-17-butyl-3,17-dihydroxy-13-methyl-7,8,9,11,12,13,14,15,16,17-decahydro-6H-cyclopenta[a]phenanthren-15-yl)-N-(5-methylthiazol-2-yl)propanamide] | 93 | 6 | 90
3 | CC(=O)O[C@H]1C[C@@H](CCC(=O)Nc2ncc(C)s2)C2C3CCc4cc(OC(=O)c5ccccc5)ccc4C3CC[C@@]21C (stereo partly drawn) [Compound 55, Benzoic acid (13S,15R,17S)-17-acetoxy-13-methyl-15-[2-(5-methylthiazol-2-ylcarbamoyl)-ethyl]-17-oxo-7,8,9,11,12,13,14,15,16,17-decahydro-6H-cyclopenta[a]phenanthren-3-yl ester] |  |  | 47
